Experimental data taken from article PMC3361763 (2011).

Key:
[1] = target: CDK6 (Homo sapiens, UniProt Q00534); assay: radiometric kinase assay; type: biochemical
[2] = target: CDK4 (Homo sapiens, UniProt P11802); assay: radiometric kinase assay; type: biochemical
CDK4, sequence (P11802 2-303): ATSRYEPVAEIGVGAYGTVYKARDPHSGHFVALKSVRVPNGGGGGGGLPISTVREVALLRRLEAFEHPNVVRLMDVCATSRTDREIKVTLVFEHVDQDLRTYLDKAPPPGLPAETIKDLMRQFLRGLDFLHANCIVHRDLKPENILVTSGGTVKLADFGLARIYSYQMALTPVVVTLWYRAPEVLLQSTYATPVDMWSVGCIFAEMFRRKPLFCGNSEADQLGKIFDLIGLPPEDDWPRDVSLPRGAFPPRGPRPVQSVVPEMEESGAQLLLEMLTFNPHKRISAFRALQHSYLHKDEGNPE

CDK6, sequence (Q00534 whole entry): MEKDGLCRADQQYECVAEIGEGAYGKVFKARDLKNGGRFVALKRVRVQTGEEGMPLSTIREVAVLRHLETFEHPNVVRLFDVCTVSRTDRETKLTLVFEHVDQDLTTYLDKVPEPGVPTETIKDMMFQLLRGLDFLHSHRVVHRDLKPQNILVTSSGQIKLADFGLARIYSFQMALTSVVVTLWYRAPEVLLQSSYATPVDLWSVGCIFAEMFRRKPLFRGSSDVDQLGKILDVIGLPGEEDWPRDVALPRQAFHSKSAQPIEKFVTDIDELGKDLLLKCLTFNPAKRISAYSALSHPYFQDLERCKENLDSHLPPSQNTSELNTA

IC50 [1]: 75 µM | radiometric kinase assay (GST-Rb substrate) on CDK4 immunoprecipitated from HCT1 [2]: ~ 75 μM
SMILES: O=C(O)CN(CC(=O)O)Cc1cc2c(cc1O)Oc1cc(O)c(CN(CC(=O)O)CC(=O)O)cc1C21OC(=O)c2ccccc21 [calcein, 4′5′-bis(N, N-bis(carboxymethyl)aminomethyl) fluorescein]
